From paper PMC12510010 (The Journal of Biological Chemistry, 2025)

Assays:
Type in all cases: cell-based
[1] = tested on: MRP4 (cGMP in T-84 cells); test: Ratiometric FRET of live cGMP production with sensor cygnet 2.1; conditions: STc (100 nm) + MK571 (10 μM), vs STc alone, t test p = 0.0481
Protocol: (§1) Figure 4 GCC and MRP4 are functionally coupled in the intestinal epithelial cells. A, dot-blot analysis of GST-NHERF1-4 binding with the C-terminal 50 amino acids of MRP4 (MRP4C50) that contains the C-terminal PDZ-domain binding motif ETALCOOH. GST was used as a negative control. 2 and 20 ng of purified MRP4C50 were also immobilized on the nitrocellulose membrane as positive controls for detection. The detection of the protein interaction was performed using S-protein HRP Conjugate. B, the macromolecular complex formation assay between MRP4C50 and GCCC50via NHERF3. […] D, bar-graph represents the amount of cGMP measured using ELISA from total cell lysate and the supernatant (medium) from T-84 cells treated with ± STc (1 μM, 30 min) ± MK571 (10 μM, 30 min). n represents each data point with n = 6 to 8 obtained from three independent experiments. […] E, bar-graph represents the quantitation of fluid secretion in the mouse enteroids treated with ± STc (1 μM, 30 min) ± MK571 (10 μM, 30 min). Fluid secretion in the mouse enteroids calculated from n = 8 to 25 organoids per condition. […] F, bar-graph represents the quantitation of fluid secretion in the human enteroids treated with ± STc (1 μM, 30 min) ± MK571 (10 μM, 30 min). Fluid secretion in the human enteroids calculated from n = 12 to 17 organoids per condition. […]

[2] = tested on: MRP4 (cGMP efflux, T-84 cells); test: Extracellular cGMP (ELISA), T-84 cells; conditions: STc (1 μM, 30 min) + MK571 (10 μM, 30 min), n = 6 to 8, three independent experiments
Protocol: as §1

[3] = tested on: MRP4; fluid secretion in mouse enteroids; test: STc-stimulated fluid secretion in mouse enteroids with MK571; conditions: STc (1 μM, 30 min), MK571 (10 μM, 30 min), n = 8 to 25 organoids
Protocol: as §1
(§2) Intestinal crypt isolation and quantitation of fluid secretion in enteroids […]

[4] = tested on: MRP4; fluid secretion in human enteroids; test: STc-stimulated fluid secretion in human enteroids with MK571; conditions: STc (1 μM, 30 min), MK571 (10 μM, 30 min), n = 12 to 17 organoids
Protocol: as §1, §2

## CN(C)C(=O)CCSC(SCCC(=O)O)c1cccc(/C=C/c2ccc3ccc(Cl)cc3n2)c1 (stereo not shown) [MK571]
[1]
  cGMP accumulation (ratiometric FRET): synergistic accumulation of cGMP
[2]
  cGMP in the cell supernatant: reduced cGMP concentrations (in the cell supernatant)
[3]
  STc-stimulated fluid secretion with MK571: enhanced STc-stimulated fluid secretion
[4]
  STc-stimulated fluid secretion with MK571: enhanced STc-stimulated fluid secretion
